# Measurements taken from US5877212A (priority 1997, dated 1999).
# Read-outs that look alike come from different tables or passages of the source.
# Key:
# [1] = type: physicochemical
# [2] = in vivo, pH 4.8
# [3] = water; cited from earlier work
# [4] = in vivo
# [5] = design: species or system human; conditions: in vivo
Structure (SMILES),pK1 (pKa) [3],also measured
"CC(O)C(=O)O (centres unmarked) [lactic acid, 2-hydroxypropanoic acid]",,anion content (lactate) ([1]; pH 4.5): 8%; free acid content ([1]; pH 4.5): 2%; skin irritation [2]: can still irritate sensitive skin or atopic skin
"CC(C)(O)C(=O)O [Methyllactic acid, 2-methyl 2-hydroxypropanoic acid]",3.72,
"O=C(O)C(O)CO (racemic) [DL-Glyceric acid, 2,3-dihydroxypropanoic acid]",3.64,
"O=C(O)C(O)c1ccccc1 (centres unmarked) [Mandelic acid, 2-phenyl 2-hydroxyethanoic acid]",3.41,
"O=C(O)CO [Glycolic acid, 2-hydroxyethanoic acid]",,anion content (glycolate) ([1]; pH 3.2): 2%; free acid content ([1]; pH 3.2): 8%; anion content (glycolate) ([1]; pH 3.83): 5%; free acid content ([1]; pH 3.83): 5%
CCC(O)C(=O)O (centres unmarked) [2-Hydroxybutanoic acid],3.65,
"CC(O)(C(=O)O)c1ccccc1 (centres unmarked) [Atrolactic acid, 2-phenyl 2-methyl 2-hydroxyethanoic acid]",3.53,
Oc1ccc(O)cc1 [hydroquinone],,improvement of pigmented and non-pigmented spots and patches [4]: improved very slightly
C[C@H](O)CC(=O)O [L-3-Hydroxybutanoic acid],4.41,
"O=C(O)C(CO)c1ccccc1 (centres unmarked) [Tropic acid, 2-phenyl-3-hydroxypropanoic acid]",3.53,
O=C(O)C(O)CCl (centres unmarked) [3-Chlorolactic acid],3.12,
"CC(=O)C(=O)O [Pyruvic acid, 2-ketopropanoic acid]",2.49,
O=C(O)c1ccccc1O [salicylic acid],,improvement of acne lesions [5]: improved slightly
"O=C(O)C(O)C(O)C(O)C(O)C(=O)O (centres unmarked) [Glucaric acid, 2,3,4,5-tetrahydroxyhexane-1,6-dioic acid]",5.00,
"O=C(O)C(O)C(O)C(O)C(O)CO [D-Gluconic acid, 2,3,4,5,6-pentahydroxyhexanoic acid]",3.86,
"O=C(O)C(O)C(=O)O [Tartronic acid, 2-hydroxypropane-1,3-dioic acid]",2.37,pK2 [3]: 4.74
"C[C@H](O)C(=O)O [L-Lactic acid, 2-hydroxypropanoic acid]",,anion content (lactate) ([1]; pH 3.86): 5%; free acid content ([1]; pH 3.86): 5%
"O=C(O)CC(O)C(=O)O (centres unmarked) [Malic acid, 2-hydroxybutane-1,4-dioic acid]",3.46,pK2 [3]: 5.10
